Measured values published in patent US12370235B2, “Synthetic, non-natural antimicrobial peptides inspired by Staphylococcus auricularis delta toxin” (University of Saskatchewan, priority 2021, dated 2025).
In brackets after ≈: the same amount, converted by molar mass. Square brackets hold non-standard residues; d marks the D form. Ends that are not written are not given here. Peptide text beside a SMILES is read from it. Orn = NCCC[C@H](N)C(=O)O

Tests used:
S. aureus ATCC 29213 = experiment: MIC, broth dilution; format: cell-based, Staphylococcus aureus; settings: Table 5; STIP3 variants, highest concentration 100 μg/mL
In short: (§1)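 Peptides of 95% purity tested as 2-fold dilution series against bacteria diluted to OD 6×10^−4 in cation-adjusted Mueller Hinton broth. Standing cultures incubated overnight at 37° C; MIC is the lowest concentration with no visible growth.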

[1] = system: S. aureus ATCC 33592 (MRSA SCCmec type III); experiment: MIC, broth dilution; format: cell-based, Staphylococcus aureus; settings: Table 5; STIP3 variants, highest concentration 100 μg/mL
In short: as §1

[2] = system: S. aureus ATCC BAA-1683 (MRSA SCCmec type IV); experiment: MIC, broth dilution; format: cell-based, Staphylococcus aureus; settings: Table 5; STIP3 variants, highest concentration 100 μg/mL
In short: as §1

[3] = system: S. aureus ATCC BAA-2094 (MRSA SCCmec type V); experiment: MIC, broth dilution; format: cell-based, Staphylococcus aureus; settings: Table 5; STIP3 variants, highest concentration 100 μg/mL
In short: as §1

[4] = system: S. aureus ATCC BAA-2313 (MRSA SCCmec type XI); experiment: MIC, broth dilution; format: cell-based, Staphylococcus aureus; settings: Table 5; STIP3 variants, highest concentration 100 μg/mL
In short: as §1

[5] = system: S. aureus ATCC BAA-41 (MRSA SCCmec type II); experiment: MIC, broth dilution; format: cell-based, Staphylococcus aureus; settings: Table 5; STIP3 variants, highest concentration 100 μg/mL
In short: as §1

[6] = system: S. aureus ATCC BAA-42 (MRSA SCCmec type VI); experiment: MIC, broth dilution; format: cell-based, Staphylococcus aureus; settings: Table 5; STIP3 variants, highest concentration 100 μg/mL
In short: as §1

[7] = system: S. aureus ATCC BAA-44 (MRSA SCCmec type I); experiment: MIC, broth dilution; format: cell-based, Staphylococcus aureus; settings: Table 5; STIP3 variants, highest concentration 100 μg/mL
In short: as §1

[8] = system: Mannheimia haemolytica ATCC 33393; experiment: MIC, broth dilution; format: cell-based; settings: Table 11; highest concentration 25 μg/mL
In short: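 Peptides (95% purity) in 2-fold dilution series were mixed with M. haemolytica diluted to OD 6×10^−4 in cation-adjusted Mueller Hinton broth and incubated standing overnight at 37 °C. MIC was the lowest concentration with no visible growth.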

C. albicans MYA-2876 = experiment: MIC, YPD broth; format: cell-based, Candida albicans; settings: Table 8
In short: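 Minimum inhibitory concentrations against Candida albicans were determined in YPD broth (10 g/L yeast extract, 20 g/L peptone, 20 g/L dextrose) using peptides of 95% purity. A 180 μl volume of diluted yeast was combined with 20 μl of peptide in a 2-fold dilution series in 96-well plates, with sterile water as control, then incubated standing overnight at 37° C.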

[9] = system: Candida duobushaemulonii AR 391; experiment: MIC, YPD broth, CDC and FDA AR Candida isolate panel; format: cell-based; settings: Table 9 below the line: only 200 or 100 μg/mL tested; values reported as 100 are ≤100 μg/mL
In short: (§2)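 Overnight standing culture at 37° C in the presence of peptide serially diluted by halves. Starting cell density corresponded to an optical density of […].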

[10] = system: Candida duobushaemulonii AR 392; experiment: as above; format: cell-based; settings: Table 9 below the line: only 200 or 100 μg/mL tested; values reported as 100 are ≤100 μg/mL
In short: as §2

[11] = system: Candida duobushaemulonii AR 394; experiment: as above; format: cell-based; settings: Table 9 below the line: only 200 or 100 μg/mL tested; values reported as 100 are ≤100 μg/mL
In short: as §2

[12] = system: Candida haemulonii AR 393; experiment: as above; format: cell-based; settings: Table 9 below the line: only 200 or 100 μg/mL tested; values reported as 100 are ≤100 μg/mL
In short: as §2

[13] = system: Candida haemulonii AR 395; experiment: as above; format: cell-based; settings: Table 9 below the line: only 200 or 100 μg/mL tested; values reported as 100 are ≤100 μg/mL
In short: as §2

Candida krusei AR 397 = experiment: as above; format: cell-based; settings: Table 9 below the line: only 200 or 100 μg/mL tested; values reported as 100 are ≤100 μg/mL
In short: as §2

[14] = system: Candida lusitaniae AR 398; experiment: as above; format: cell-based; settings: Table 9 below the line: only 200 or 100 μg/mL tested; values reported as 100 are ≤100 μg/mL
In short: as §2

Kodamae ohmeri AR 396 = experiment: as above; format: cell-based; settings: Table 9 below the line: only 200 or 100 μg/mL tested; values reported as 100 are ≤100 μg/mL
In short: as §2

[15] = system: Saccharomyces cerevisiae AR 399; experiment: as above; format: cell-based; settings: Table 9 below the line: only 200 or 100 μg/mL tested; values reported as 100 are ≤100 μg/mL
In short: as §2

[16] = system: Saccharomyces cerevisiae AR 400; experiment: as above; format: cell-based; settings: Table 9 below the line: only 200 or 100 μg/mL tested; values reported as 100 are ≤100 μg/mL
In short: as §2

Compound | MIC S. aureus ATCC 29213 (S. aureus ATCC 29213) [µg/mL] | MIC S. aureus ATCC 33592 (III) [1] [µg/mL] | MIC S. aureus ATCC BAA 1683 (IV) [2] [µg/mL] | MIC S. aureus ATCC BAA 2094 (V) [3] [µg/mL] | MIC S. aureus ATCC BAA 2313 (XI) [4] [µg/mL] | MIC S. aureus ATCC BAA 41 (II) [5] [µg/mL] | MIC S. aureus ATCC BAA 42 (VI) [6] [µg/mL] | MIC S. aureus ATCC BAA 44 (I) [7] [µg/mL] | MIC (μg/mL) M. haemolytica [8] [µg/mL] | MIC C. albicans MYA-2876 (C. albicans MYA-2876) | MIC (μg/mL) Candida duobushaemulonii AR 391 [9] | MIC (μg/mL) Candida duobushaemulonii AR 392 [10] | MIC (μg/mL) Candida duobushaemulonii AR 394 [11] | MIC (μg/mL) Candida haemulonii AR 393 [12] | MIC (μg/mL) Candida haemulonii AR 395 [13] | MIC (μg/mL) Candida krusei AR 397 (Candida krusei AR 397) [µg/mL] | MIC (μg/mL) Candida lusitaniae AR 398 [14] [µg/mL] | MIC (μg/mL) Kodamae ohmeri AR 396 (Kodamae ohmeri AR 396) | MIC (μg/mL) Saccharomyces cerevisiae AR 399 [15] [µg/mL] | MIC (μg/mL) Saccharomyces cerevisiae AR 400 [16] [µg/mL]
TVGGLVKWILDTVKKFI [STIP3-5, TVGGLVKWILDTVKKFI] | 50 | 25 | 25 | 25 | 25 | 25 | 12.5 | 50 | 25 | 100 µg/mL | > (values below the line were determined using two concentrations of peptide 200 or 100 μg/mL) | > (values below the line were determined using two concentrations of peptide 200 or 100 μg/mL) | > (values below the line were determined using two concentrations of peptide 200 or 100 μg/mL) | > (values below the line were determined using two concentrations of peptide 200 or 100 μg/mL) | > (values below the line were determined using two concentrations of peptide 200 or 100 μg/mL) | ≤ 100 | ≤ 100 | > (values below the line were determined using two concentrations of peptide 200 or 100 μg/mL) | ≤ 100 | ≤ 100
TVGGLVKWILNTVKKFA [STIP3-4, TVGGLVKWILNTVKKFA] | 100 | 50 | 100 | 50 | 100 | 50 | 50 | 50 | 25 | 12.5 µg/mL | > (values below the line were determined using two concentrations of peptide 200 or 100 μg/mL) | > (values below the line were determined using two concentrations of peptide 200 or 100 μg/mL) | > (values below the line were determined using two concentrations of peptide 200 or 100 μg/mL) | > (values below the line were determined using two concentrations of peptide 200 or 100 μg/mL) | > (values below the line were determined using two concentrations of peptide 200 or 100 μg/mL) | ≤ 100 | ≤ 100 | > (values below the line were determined using two concentrations of peptide 200 or 100 μg/mL) | ≤ 100 | ≤ 100
TVGGLVKWILAAVKKFA [STIP3-12, TVGGLVKWILAAVKKFA] | 25 | 25 | 25 | 50 | 25 | 25 | 25 | 25 | 25 | 100 µg/mL | > (values below the line were determined using two concentrations of peptide 200 or 100 μg/mL) | > (values below the line were determined using two concentrations of peptide 200 or 100 μg/mL) | > (values below the line were determined using two concentrations of peptide 200 or 100 μg/mL) | > (values below the line were determined using two concentrations of peptide 200 or 100 μg/mL) | > (values below the line were determined using two concentrations of peptide 200 or 100 μg/mL) | ≤ 100 | ≤ 100 | > (values below the line were determined using two concentrations of peptide 200 or 100 μg/mL) | ≤ 100 | ≤ 100
CC[C@H](C)[C@H](NC(=O)[C@H](Cc1c[nH]c2ccccc12)NC(=O)[C@H](CCCN)NC(=O)[C@@H](NC(=O)[C@H](CC(C)C)NC(=O)[C@H](C)NC(=O)[C@H](CCCN)NC(=O)[C@@H](NC(=O)[C@@H](N)[C@@H](C)O)C(C)C)C(C)C)C(=O)N[C@@H](CC(C)C)C(=O)N[C@@H](CCCN)C(=O)N[C@H](C(=O)N[C@H](C(=O)N[C@@H](C)C(=O)N[C@@H](CCCN)C(=O)N[C@@H](Cc1ccccc1)C(=O)N[C@@H](C)C(=O)O)C(C)C)[C@@H](C)O [STIP3-22, TVXALVXWILXTVAXFA] (H-TV[Orn]ALV[Orn]WIL[Orn]TVA[Orn]FA-OH; N-terminus and C-terminus assumed) | 25 (≈ 13.4 µM) | 25 (≈ 13.4 µM) | 25 (≈ 13.4 µM) | 25 (≈ 13.4 µM) | 100 (≈ 53.8 µM) | 25 (≈ 13.4 µM) | 25 (≈ 13.4 µM) | 25 (≈ 13.4 µM) | 6.25 (≈ 3.36 µM) | > (> symbol indicates that no inhibition was observed at the highest concentration of peptide tested: 100 μg/mL) | > (values below the line were determined using two concentrations of peptide 200 or 100 μg/mL) | > (values below the line were determined using two concentrations of peptide 200 or 100 μg/mL) | > (values below the line were determined using two concentrations of peptide 200 or 100 μg/mL) | > (values below the line were determined using two concentrations of peptide 200 or 100 μg/mL) | > (values below the line were determined using two concentrations of peptide 200 or 100 μg/mL) | ≤ 100 | ≤ 100 | > (values below the line were determined using two concentrations of peptide 200 or 100 μg/mL) | ≤ 100 | ≤ 100
TVGGLVKWILDVVKKFA [STIP3-9, TVGGLVKWILDVVKKFA] | 25 | 25 | 25 | 25 | 25 | 35 | 25 | 25 | 25 | 50 µg/mL | > (values below the line were determined using two concentrations of peptide 200 or 100 μg/mL) | > (values below the line were determined using two concentrations of peptide 200 or 100 μg/mL) | > (values below the line were determined using two concentrations of peptide 200 or 100 μg/mL) | > (values below the line were determined using two concentrations of peptide 200 or 100 μg/mL) | > (values below the line were determined using two concentrations of peptide 200 or 100 μg/mL) | ≤ 100 | ≤ 100 | > (values below the line were determined using two concentrations of peptide 200 or 100 μg/mL) | ≤ 100 | ≤ 100
